Assay results reported in US20240190857A1, “METHODS FOR MANUFACTURE OF SMALL MOLECULE ACTIVATORS OF TIE-2” (EyePoint Pharmaceuticals, Inc., priority 2020, published 2024).
Values after ≈ are worked out from the molar mass of the structure shown. Read-outs that look alike come from different tables or passages of the source.

Test: Solubility of compounds in various solvents
Type: physicochemical
Conditions: for solubility: organic solvent or mixture, read-out: Observation: solubility / saturation concentration (S.C.)

Row | solubility (17 °C, DMF, 17-22° C.) | solubility (17 °C, Toluene, 17-22° C.) | solubility (50 °C, THF, 50-55° C.) | solubility (60 °C, 2-MeTHF, 60-65° C.) | Structure (SMILES) | solubility (17 °C, Acetone, 17-22° C.) | solubility (17 °C, Acetone:H2O (80:20), 17-22° C.) | solubility (17 °C, DMSO, 17-22° C.) | solubility (17 °C, MeOH, 17-22° C.) | solubility (17 °C, THF, 17-22° C.) | Observation: solubility / saturation concentration (S.C.) (MeOH, 17-22° C.)
1 |  |  |  |  | COC(=O)N[C@@H](Cc1ccccc1)C(=O)N[C@@H](Cc1ccc(NS(=O)(=O)[O-])cc1)c1csc(-c2cccs2)n1.[Na+] [Compound 1, sodium (4-((S)-2-((S)-2-((methoxycarbonyl)amino)-3-phenylpropanamido)-2-(2-(thiophen-2-yl)thiazol-4-yl)ethyl)phenyl)sulfamate] | < 60 mg/mL | ≥ 53 mg/mL | ≥ 106 mg/mL | ~30 mg/mL | < 40 mg/mL | 
2 | ≥ 100 mg/mL | < 5 mg/mL | ~100 mg/mL (≈ 186 mM) | ~15 mg/mL (≈ 28 mM) | COC(=O)N[C@@H](Cc1ccccc1)C(=O)N[C@@H](Cc1ccc([N+](=O)[O-])cc1)c1csc(-c2cccs2)n1 [Compound F-3, methyl ((S)-1-(((S)-2-(4-nitrophenyl)-1-(2-(thiophen-2-yl)thiazol-4-yl)ethyl)amino)-1-oxo-3-phenylpropan-2-yl)carbamate] |  |  |  |  | ~5 mg/mL (≈ 9.32 mM) | 
3 |  |  |  |  | CN(C)C.COC(=O)N[C@@H](Cc1ccccc1)C(=O)N[C@@H](Cc1ccc(NS(=O)(=O)O)cc1)c1csc(-c2cccs2)n1 [Compound F-5, trimethylammonium (4-((S)-2-((S)-2-((methoxycarbonyl)amino)-3-phenylpropanamido)-2-(2-(thiophen-2-yl)thiazol-4-yl)ethyl)phenyl)sulfamate] |  |  |  |  |  | Soluble at 93 mg/mL
